Where two headings read alike, the source gives them in different places. One block for each molecule: values may come before it.
Key:
[1] = in vitro; cited from earlier work
[2] = cited from earlier work
[3] = Procedure: The ratio between MCH and the tested excipient is detailed below. Visual inspection was the major criterion for indication of compatibility. The color of intact MCH suspension is pale yellow; and any change of color (e.g., to dark orange, red, green, brown and black) indicates oxidation or degradation.
Other than hydrogenated castor oil, beeswax, paraffin and hard fat, the aforesaid items listed are oily emollients.
Additives were tested for compatibility with MCH. […] In parallel, antioxidants were added to the MCH suspensions comprising water.

[4] = Doxycycline Hyclate Compatibility Test; assay type: physicochemical
Procedure: (§1) A similar compatibility study was conducted for Doxycycline Hyclate and Doxycycline Monohydrate.
(§2) Different compositions of hydrophilic and hydrophobic solvents containing Doxycycline Hyclate (Set I and Set II) and Doxycycline Monohydrate (Set III) were prepared by weighing the antibiotic in a glass vial and shaking overnight with each solvent investigated.
Group II included Doxycycline Hyclate mixed with various vehicles with addition of antioxidants like alpha tocopherol, butylated hydroxytoluene (BHT), and ascorbic acid.

[5] = Doxycycline Monohydrate Compatibility Test; assay type: physicochemical
Procedure: as §1, §2
A similar compatibility test was performed on another form of Doxycycline—Doxycycline Monohydrate.

[6] = Doxycycline Monohydrate Compatibility Test; assay type: physicochemical; remark: listed apart in the source
[7] = tested after the storage for up to 3 weeks
[8] = mixtures stored at 25° C., 40° C. and 50° C. for two weeks

Molecule: CN(C)c1ccc(O)c2c1C[C@H]1C[C@H]3[C@H](N(C)C)C(O)=C(C(N)=O)C(=O)[C@@]3(O)C(O)=C1C2=O [minocycline]
Skin delivery of minocycline on topical administration [1]: appreciable amounts of the drug to its target site of action (the skin)

Molecule: Doxycycline hyclate
Lipid solubility [2]: high degree of lipid solubility
Solubility ([2]; in solutions of alkali hydroxides and carbonates): soluble
Solubility ([2]; in water): soluble

Compatibility with MCH ([3]; hydrophilic solvents, MCH:excipient 1:250, 25° C. and 40° C., maximum sixty days): incompatible
Compatibility with Minocycline HCl [3, 7]: No
Compatibility with Doxycycline Hyclate [4, 8]: stable
Compatibility with Doxycycline Hyclate [4, 7]: Yes
Compatibility with Doxycycline Monohydrate [5, 8]: oxidized
Compatibility with Doxycycline Monohydrate [5, 7]: No
Compatibility Results ([6]; Mixtures of 1.04% w/w of Doxycycline Monohydrate stored at 25° C., 40° C., and 50° C. for two weeks): Non compatible
Visual inspection after the storage at 25° C. ([6]; Mixtures of 1.04% w/w of Doxycycline Monohydrate, 25° C., two weeks): Brown
Visual inspection after the storage at 40° C. ([6]; Mixtures of 1.04% w/w of Doxycycline Monohydrate, 40° C., two weeks): Brown
Visual inspection after the storage at 50° C. ([6]; Mixtures of 1.04% w/w of Doxycycline Monohydrate, 50° C., two weeks): Black
Visual inspection at T-0 ([6]; Mixtures of 1.04% w/w of Doxycycline Monohydrate, T-0): bright yellow
Molecule: CCO [Ethanol]
Compatibility with Minocycline HCl (observations) ([3]; on dissolution / storage): changed their color from yellow to orange
